Reference: patent US20210222184A1, “COMPOSITIONS AND METHODS FOR EXPRESSING TRANSGENES USING REGULATORY ELEMENTS FROM RUBISCO ACTIVASE GENES” (DOW AGROSCIENCES LLC, priority 2018, published 2021)

How the values were obtained:
[1] = system: tagRFP/AAD12 reporter gene; assay: N. benthamiana leaf infiltration transient assay, RFP fluorescence; type: in vivo; conditions: for RFP Mean / RFP Median: Typhoon scanner fluorescence, leaves collected 6th day after infiltration, co-infiltrated with P19 silencing suppressor strain
Excerpt: Twenty four day old plants were used for infiltration.

GFP = GFP driven by AtUbi10/AtuOrf23 in both constructs; Typhoon scanner, 6th day after infiltration
Experimental: N. benthamiana plants were grown in the greenhouse under 16 hour photoperiod, 27° C./24° C. Twenty four day old plants were used for infiltration. The 3-4 top-most leaves were infiltrated using two Agrobacterium strains. The first strain was used in all infiltrations and carried the pDAB112236 construct expressing P19 silencing suppressor (Silhavy et al, (2002), EMBO J, 21, 3070-3080). The second Agrobacterium strain was either the experimental strain carrying pDAB116647 (SEQ ID NO:12) or a strain carrying the control pDAB110167 binary vector (FIG. 6). The pDAB110167 was identical to the pDAB116647 (SEQ ID NO:12) except that it had the reporter tagRFP/AAD12 fusion gene driven by the ScBV (Sugar Cane Bacilliform Virus) promoter fused to the Maize Streak Virus (MSV) 5′ leader engineered to contain maize Alcohol dehydrogenaseI (AdhI) gene intron 6 was paired with the StPinII terminator fragment (abbreviated ScBV/StPinII) to drive expression of the tagRFP/AAD12 reporter gene.
For N. benthamiana leaf infiltrations Agrobacterium strains containing either the pDAB116647 or pDAB110167 were mixed in equal proportions with an Agrobacterium strain that carried a plasmid that contained a gene encoding the P19 silencing suppressor Voinnet et al, (1999), Proc Natl Acad Sci USA, 96, 14147-14152. The mixing ratios were based on Optical Density (OD) readings. The density of all Agrobacterium cultures was adjusted to OD 2.0. After infiltration plants were maintained in a Conviron until leaves were collected on the 6th day after infiltration. Fluorescence data were collected using a Typhoon scanner from 30 leaves per construct with 3-5 one inch disks per leaf.
All samples from N. benthamiana were scanned on 3 channels: chlorophyll (488 nm blue laser, 670 nm BP30, 580 nm split), GFP (488 nm blue laser, 520 nm BP40, 580 nm split), and tagRFP (532 nm green laser, 580 nm BP30). The PhotoMultiplier Tube (PMT) setting used for N. benthamiana was 340/340/400. Background adjustments were made by subtracting calculated means for non-treated and empty vector controls from test treatment values. The values from each leaf were averaged to generate a mean fluorescence value.

[2] = system: transgenic soybean plants; assay: 2,4-D herbicide tolerance of T1 transgenic soybean plants; type: in vivo, Glycine max; conditions: 2240 g ae/ha 2,4-D foliar
Excerpt: To assess T1 Soybean Herbicide Tolerance, T1 seed generated from self-pollination of single copy T0 events were planted in an artificial soil mix (MetroMix 360™) contained in 4-inch square pots. The T1 generation is a segregating population of the homozygous, hemizygous and non-transgenic plants. To eliminate the null individuals, the T1 population received a foliar application of 411 g active ingredient (ai)/ha glufosinate ammonium (Liberty® 280) when plants reached the first trifoliate leaf stage. Four days after application (DAA) surviving plants were sampled for molecular analysis to determine transgene zygosity and to confirm transgene copy number.
For each event, 8 homozygous and 8 hemizygous plants were sampled for protein analyses, and the following day (third trifoliate stage), half of the plants received a foliar application of 2240 g acid equivalent (ae)/ha 2,4-D dimethylamine (DMA) salt (Weedar® 64). The remaining plants received no spray application. Some plants were also sprayed with deionized water as a sprayer application control. In addition to the transformed events, the soybean variety, ‘Maverick’, was included in each treatment as a non-transformed control.
Foliar applications were made with a Mandel track sprayer set to deliver a spray solution at 187 L/ha to a spray area of 0.503 m^2 using an 8002E nozzle and a spray height of 18 inches above the plant canopy. Plant response to the 2,4-D application was evaluated at 5 hours after application (HAA) and 1, 7, and 14 DAA. Data were collected by assessment of visual injury and/or growth reduction as compared to untreated controls on a scale of 0% to 100% with 0% corresponding to no injury or growth reduction and 100% corresponding to complete plant death. Plants were maintained at 28° C./25° C. (day/night) under a 14 h photoperiod and sub-irrigated with water or fertilizer as needed.

Substance	RFP Mean [1]	RFP Median [1]	RFP fluorescence relative to the control (pDAB110167) construct ([1]; mean and median, p-Value <0.0001)	GFP Mean (GFP)	GFP Median (GFP)	% Injury Mean 1 DAA ([2]; Hemi)	% Injury Mean 5 HAA ([2]; Hemi)	% Injury Mean 7 DAA ([2]; Hemi)	% Injury Mean 14 DAA ([2]; Hemi)	% Injury Mean 1 DAA ([2]; Homo)	% Injury Mean 5 HAA ([2]; Homo)	% Injury Mean 7 DAA ([2]; Homo)	% Injury Mean 14 DAA ([2]; Homo)
pDAB116647: binary vector with tagRFP/AAD12 reporter gene driven by GmRubAct promoter, 5' UTR and terminator	40982229	39409305	significantly higher	161956091	156309149								
pDAB110167: control binary vector; tagRFP/AAD12 driven by ScBV promoter, MSV 5' leader with AdhI intron 6, StPinII terminator [reference compound]	24746396	21007653		166966846	148985095								
pDAB116632: plasmid with GmRubAct promoter and 5' UTR fused to AAD12 gene, terminated with GmRubAct terminator						18.13%	15.0%	4.38%	3.75%	12.0%	8.67%	2.33%	1.67%
